{
  "source": "patent US20220000962A1",
  "about": "“PLANT-BASED BIOLOGICALLY ACTIVE SUBSTANCE HAVING A POLYPHARMACOLOGICAL EFFECT” (priority 2015, published 2022)",
  "origin": "cited, not measured here",
  "system": "CMV",
  "conditions": "tricin obtained from Sasa albo-marginata",
  "data": [
    {"smiles": "COc1cc(-c2cc(=O)c3c(O)cc(O)cc3o2)cc(OC)c1O", "note": "[tricin, 5,7,4-trihydroxy-3′,5′-dimethoxyflavone]", "values": [
      {"measurement": "concentration which inhibits development of CMV infection on the cellular level for 50%", "value": 0.139, "unit": "µg/mL"},
      {"measurement": "IC50", "setting": "read-out: concentration which inhibits development of CMV infection on the cellular level for 50%", "value": 0.42, "unit": "µM"}
    ]}
  ]
}
